Entries after “also recorded” stand apart in the source; their conditions may differ.
Experiments:
Format in all cases: cell-based
[1] = target: COP1 (Homo sapiens, UniProt Q8NHY2); assay: Immunoprecipitation assay of COP1 autoubiquitination in HepG2 cells; settings: 5 μM, 24 hours, MG-132
Description: COP1 is capable of auto ubiquitinating its own self and getting degraded via the proteasomal pathway. To probe into this, HepG2 cells were co-transfected with HA tagged Ubiquitin and myc-flag tagged COP1. The transfected cells were treated with 5 μM of compounds 9, 10, 107 and 238 for 24 hours. MG-132, a proteasomal inhibitor, was added 4 hours before harvesting the cells. Immune complexes were pulled down with anti-myc antibody and immunoblot was done using anti-HA antibody. […] Thus, the compounds of the present disclosure could be potent therapeutic targets by being able to block the proteasomal degradation of ATGL which would then be able to carry out its lipolytic action and reverse the symptoms of steatosis.
For checking the autoubiquitination status of COP1, HepG2 cells were cotransfected with 2 μg each of Myc-DDK-COP1 and HA-Ub plasmids using Lipofectamine 2000 reagent (Invitrogen) in OptiMEM media (HiMedia). The rest of the procedure is similar to that done for Myc-ATGL.

[2] = system: COP1; assay: qPCR of COP1 mRNA in HepG2 cells; settings: 5 μM and 10 μM, 24 hours
Description: Ubiquitination of ATGL by COP1 is a post translational event, therefore, it is expected that the mRNA level of ATGL will not change compared to control upon treatment with the compound of the present disclosure which inhibit COP1. To establish this, HepG2 cells were treated with 5 μM and 10 μM of the compounds 9, 107, 171, 179 and 73 for 24 hours. RNA was isolated using TRIzol reagent followed by chloroform treatment and precipitation with isopropanol. cDNA was obtained from the isolated RNA and qPCR was carried out using SyBr green reagent. COP1 and ATGL gene expression levels were checked. 18s was used as control. FIG. 8 illustrates that compounds exert no effect on the mRNA levels of ATGL.

[3] = system: ATGL; assay: Immunoprecipitation assay of ATGL ubiquitination in myc-ATGL HepG2 cells; settings: 5 μM, 24 hours, MG-132, poly ubiquitin smear
Description: To this end, an immunoprecipitation assay was performed wherein HepG2 cells overexpressing myc-ATGL were transfected with HA-Ubiquitin and treated with 5 μM of the compounds 9, 10, 107, 215, 219 and 238. MG-132, a proteasomal inhibitor, was added 4 hours before harvesting the cells. Immune complexes were pulled down with anti-myc antibody and immunoblot was done using anti-HA antibody. The resultant smears on the blot reflect the ubiquitination status of ATGL.
For checking the change in the ubiquitination status of ATGL on compound treatment, Myc-ATGL expressing HepG2 cells (ATGL overexpressing cell line) was transfected with 2 μg of a plasmid harboring the HA tagged ubiquitin gene using Lipofectamine 2000 reagent (Invitrogen) in OptiMEM media (HiMedia). Fresh DMEM complete media was added after 8-10 hours of transfection. After roughly 24 hours of transfection, 5 μM of the compounds 9, 10 and 107 was added and cells were harvested post 24 hours of treatment. 4 hours prior to cell harvesting, 10 μM of proteasomal inhibitor MG132 (Calbiochem, Merck Millipore) was added to the cells. Proteins were isolated from the cells and protein concentration was estimated as described previously. 30 μl of PureProteome Protein A/G Mix Magnetic Beads (Merck Millipore) was taken in a 1.5 ml microcentrifuge tube, placed in a Magna Rack (Merck Millipore) and allowed to adhere to the side of the tube. 200 μg of protein was used for immunoprecipitation reaction in a reaction volume of 1 ml. 2 μl of anti-Myc primary antibody (Cell Signaling Technology) was added and the tube was incubated overnight at 4° C. in a rotary shaker. The next day, the tube was placed back in the Magna Rack and the beads were allowed to attach to the tube. To remove non-specific and unattached reactants, 1×PBS and 0.1% Triton-X was used for washing. 2× loading dye and Lysis Buffer was added and heated at 95° C. for 10 minutes to allow the immune complex to dislodge from the magnetic beads. Western Blot was performed subsequently as described before with anti-HA primary antibody for immunoblotting (Cell Signaling Technology). The activity trends of the synthesized compounds are disclosed in Table-5.

COP1 (Homo sapiens, UniProt Q8NHY2), sequence (Q8NHY2 whole entry): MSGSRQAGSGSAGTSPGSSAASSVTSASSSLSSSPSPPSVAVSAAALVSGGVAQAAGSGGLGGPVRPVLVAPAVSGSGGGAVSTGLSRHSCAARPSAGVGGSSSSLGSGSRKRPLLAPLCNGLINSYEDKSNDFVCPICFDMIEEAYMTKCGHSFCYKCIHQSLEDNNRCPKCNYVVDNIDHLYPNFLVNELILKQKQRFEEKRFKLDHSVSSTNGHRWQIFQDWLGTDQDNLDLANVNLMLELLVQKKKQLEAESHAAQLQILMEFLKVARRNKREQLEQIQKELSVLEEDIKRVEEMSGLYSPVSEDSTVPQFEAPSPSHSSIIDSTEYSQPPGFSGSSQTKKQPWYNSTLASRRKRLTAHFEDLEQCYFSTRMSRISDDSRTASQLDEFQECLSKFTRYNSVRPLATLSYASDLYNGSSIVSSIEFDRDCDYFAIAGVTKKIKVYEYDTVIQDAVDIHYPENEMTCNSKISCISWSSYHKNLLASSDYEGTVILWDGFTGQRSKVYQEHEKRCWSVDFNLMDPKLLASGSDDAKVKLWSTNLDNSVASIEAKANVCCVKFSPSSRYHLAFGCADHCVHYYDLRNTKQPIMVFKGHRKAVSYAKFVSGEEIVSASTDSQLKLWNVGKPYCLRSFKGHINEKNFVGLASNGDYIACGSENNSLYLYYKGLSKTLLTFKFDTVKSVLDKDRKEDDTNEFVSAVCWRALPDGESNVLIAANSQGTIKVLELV

SMILES	COP1 autoubiquitination in HepG2 cells [1]	COP1 mRNA level [2]	ATGL ubiquitination in HepG2 cells [3]
COCCn1cnc2ccc(NC(=O)Nc3cccc(C(C)=O)c3)cc2c1=O [Compound 9, 1-(3-acetylphenyl)-3-(3-(2-methoxyethyl)-4-oxo-3,4-dihydroquinazolin-6-yl)urea]	effective in reducing; also recorded: markedly reduce COP1's auto ubiquitination property	no significant changes	effective in reducing the ATGL ubiquitination by COP1; also recorded: subtle reduction in the ubiquitination smear
COCCn1c(C)nc2ccc(NC(=O)Nc3cccc(C(C)=O)c3)cc2c1=O [Compound 107, 1-(3-acetylphenyl)-3-(3-(2-methoxyethyl)-2-methyl-4-oxo-3,4-dihydroquinazolin-6-yl)urea]	effective in reducing; also recorded: markedly reduce COP1's auto ubiquitination property	no significant changes	effective in reducing the ATGL ubiquitination by COP1; also recorded: capability of subtly reducing ubiquitination of ATGL
COCC(C)n1cnc2ccc(NC(=O)Nc3cccc(C(C)=O)c3)cc2c1=O (centres unmarked) [Compound 179, 1-(3-acetylphenyl)-3-(3-(1-methoxypropan-2-yl)-4-oxo-3,4-dihydroquinazolin-6-yl)urea]		no significant changes	
COCCn1c(-c2cccnc2)nc2ccc(NC(=O)Nc3cccc(C(C)=O)c3)cc2c1=O [Compound 215, 1-(3-acetylphenyl)-3-(3-(2-methoxyethyl)-4-oxo-2-(pyridin-3-yl)-3,4-dihydroquinazolin-6-yl)urea]			no such effects; also recorded: no subtle reduction in the ubiquitination smear
COCCn1c(-c2ccncc2)nc2ccc(NC(=O)Nc3cccc(C(C)=O)c3)cc2c1=O [Compound 219, 1-(3-acetylphenyl)-3-(3-(2-methoxyethyl)-4-oxo-2-(pyridin-4-yl)-3,4-dihydroquinazolin-6-yl)urea]			no such effects; also recorded: no subtle reduction in the ubiquitination smear
COCCn1c(CN2CCCCC2)nc2ccc(NC(=O)Nc3cccc(C(C)=O)c3)cc2c1=O [Compound 238, 1-(3-acetylphenyl)-3-(3-(2-methoxyethyl)-4-oxo-2-(piperidin-1-ylmethyl)-3,4-dihydroquinazolin-6-yl)urea]	markedly reduce COP1's auto ubiquitination property		decrease ATGL ubiquitination by COP1; also recorded: decreased

Source: patent US12528777B2, “Quinazolinones derivatives for treatment of non-alcoholic fatty liver disease, preparation and use thereof” (Council of Scientific and Industrial Research, priority 2020, dated 2026)
